Source: EP0753513A2, “Optically active triazole derivative, process for producing the same, antifungal agent, and use thereof” (NIHON NOHYAKU CO., LTD., priority 1995, dated 1997)

How the values were obtained:
Candida albicans IFO1270 [1] = assay: Survival of mice inoculated with Candida albicans after oral treatment (Test Example 2); assay type: in vivo; conditions: ddY mice; 0.5% aqueous CMC solution containing 0.02% of test compound, orally, 5 ml/kg once a day for 4 days; survival ratio on final day (10 days following inoculation)
Description: ddY mice aged 6 weeks were divided into a control group having 10 mice and test groups each having 5 mice. After inoculating with 4 ml/kg of Candida albicans IFO1270 (2.5×10^7 cells/ml), which had been incubated on Sabouraud's glucose agar medium at 37°C for 2 hours, a 0.5% aqueous CMC solution (containing 10% of polyethylene glycol 400 and 0.1% of Tween 80) containing 0.02% of each test compound was orally administered to the mice in a dose of 5 ml/kg once a day for 4 days. The viable […] were counted for 10 days following the inoculation and the survival ratio on the final day was calculated. […]

Candida albicans IFO1270 [2] = assay: Growth inhibition of Candida albicans in Sabouraud's glucose broth (Test Example 1); assay type: cell-based; conditions: two days incubation at 37°C under shaking; for Growth inhibition ratio 0.1 µg/ml (%): 0.1 µg/ml test compound; for Growth inhibition ratio 10 µg/ml (%): 10 µg/ml test compound
Description: Sabouraud's glucose broth (9.8 ml) was inoculated with 0.1 ml of Candida albicans IFO1270 (1.0×10^6 cells/ml). Then 0.1 ml of a solution of each test compound dissolved with dimethylsulfoxide in an appropriate concentration was added to give concentrations of 10 µg/ml and 0.1 µg/ml. Two days after incubating at 37°C under shaking, the growth inhibition ratio was measured. […]

In the case of `CC(=O)N1CCN(c2ccc(OC[C@H]3CO[C@](Cn4ccnc4)(c4ccc(Cl)cc4Cl)O3)cc2)CC1` (relative stereo) [A, Cis-1-acetyl-4-[4-[[2-(2,4-dichlorophenyl)-2-(imidazol-1-ylmethyl)-1-3-oxolan-4-yl]methoxy]phenyl]piperazine, reference compound], the “Survival ratio (%)” value (Candida albicans IFO1270 [1]) is reported as 40%, the “Growth inhibition ratio 0.1 µg/ml (%)” value (Candida albicans IFO1270 [2]) is reported as 47% and the “Growth inhibition ratio 10 µg/ml (%)” value (Candida albicans IFO1270 [2]) is reported as 59%.

`C[C@@H](Cc1ccc(F)cc1)[C@](O)(Cn1cncn1)c1ccc(F)cc1F` [Compound 1, (2R,3S)-2-(2,4-difluorophenyl)-4-(4-fluorophenyl)-3-methyl-1-(1H-1,2,4-triazol-1-yl)butan-2-ol] was tested, and the “Survival ratio (%)” value (Candida albicans IFO1270 [1]) was 80%, the “Growth inhibition ratio 0.1 µg/ml (%)” value (Candida albicans IFO1270 [2]) was 48% and the “Growth inhibition ratio 10 µg/ml (%)” value (Candida albicans IFO1270 [2]) was 64%.

In the case of `C[C@@H](Cc1ccc(F)cc1F)[C@](O)(Cn1cncn1)c1ccc(F)cc1F` [Compound 2, (2R,3S)-2,4-bis(2,4-difluorophenyl)-3-methyl-1-(1H-1,2,4-triazol-1-yl)butan-2-ol], the “Survival ratio (%)” value (Candida albicans IFO1270 [1]) is reported as 60%, the “Growth inhibition ratio 0.1 µg/ml (%)” value (Candida albicans IFO1270 [2]) is reported as 51% and the “Growth inhibition ratio 10 µg/ml (%)” value (Candida albicans IFO1270 [2]) is reported as 66%.

In the case of `C[C@@H](Cc1ccc(C#N)cc1)[C@](O)(Cn1cncn1)c1ccc(F)cc1F` [Compound 7, (2R,3S)-4-(4-cyanophenyl)-2-(2,4-difluorophenyl)-3-methyl-1-(1H-1,2,4-triazol-1-yl)butan-2-ol], the “Survival ratio (%)” value (Candida albicans IFO1270 [1]) is reported as 100%, the “Growth inhibition ratio 0.1 µg/ml (%)” value (Candida albicans IFO1270 [2]) is reported as 55% and the “Growth inhibition ratio 10 µg/ml (%)” value (Candida albicans IFO1270 [2]) is reported as 70%.
